“Also recorded” adds a separate entry of the source.
What was measured:
C. trachomatis [1] = assay: Number, size and development of chlamydial inclusions in HeLa cells (confocal microscopy, ImageJ); assay type: cell-based, Chlamydia trachomatis strain D; conditions: for Inclusion size / Number of inclusions: C. trachomatis 24 h; for Inclusion development: total infection 24 h
Procedure: Propagation of Chlamydia and infections. Chlamydia trachomatis strain D (C. trachomatis) was propagated in HeLa cells grown in complete DMEM containing cyclohexamide (2 μg/ml). After 48 h, infected cells were harvested in sucrose-phosphate-glutamate (SPG) buffer, ruptured by vortexing with 3 mm glass beads. EBs were purified using previously described methods. The resulting bacterial pellet was resuspended in cold SPG buffer with a 21 to 22-gauge injection needle and stored in aliquots at −80° C. For infection, chlamydial EBs were added to cells in monolayer (80% confluence) at a multiplicity of infection (MOI) of 2-10 for all studies included here. Centrifugation was not used during the infection.
siRNA transfections. […] After 24 h, transfected cells were replated for a second round of transfection. After another 24 h, cells were infected with C. trachomatis and incubated for different time intervals (siRNA was maintained during the infection) according to the experimental design and were either stained for analyzing the inclusion development or prepared for Western blot analysis.
(§1) EGFR inhibitor treatment. […] The cells were pretreated with Erlotinib (25 μM) for 2 h and then infected with C. trachomatis. […] The inhibitor concentration was maintained during the infection. In certain experiments in which protein phosphorylation was investigated (FIG. 1, Panels B, D, F and G, FIG. 2, FIG. 3 and FIG. 11) the cells were serum starved overnight before drug treatment and C. trachomatis infection. […] Infected samples were used either for Western blotting or confocal imaging as described below. In another set of experiments the cells were infected with C. trachomatis followed by addition of Erlotinib at 2.5, 5 and 18 hpi. The total time for C. trachomatis infection was 24 h after which the samples were used for Western blotting or confocal imaging.
Immunofluorescence. Cells were infected with C. trachomatis as described above. The cells were washed 5 times with PBS and fixed at either 2.5 hpi or 24 hpi with 4% PFA for 10 min and blocked with 5% BSA for 1 h. After washing with TBS (50 mM Tris HCl, pH 7.4 and 150 mM NaCl) the cells were permeabilized for 15 min with 0.1% Triton X-100 and again washed with TBS followed by incubation with the indicated primary antibodies overnight. […] After repeated washings, the coverslips were mounted and analyzed using Zeiss LSM 510 or 710 laser scanning confocal microscope. For the studies shown in FIG. 1, Panel A, C. trachomatis inclusions were stained using the Pathfinder Chlamydia Culture Confirmation System (BioRad, Hercules, Calif., USA). At 24 h post C. trachomatis infection, cells were fixed with methanol for 10 min at room temperature and stained with the FITC conjugated pathfinder anti-chlamydial mAb according to the manufacturer's protocol (Bio-Rad, Hercules, Calif.). For the co-localization studies, 30,000 HeLa cells were seeded into EZ slide 4-well glass slides (Millipore, Temecula, Calif., USA) and infected with C. trachomatis as described above for 2.5 h the next day. Cells were fixed 24 h later in 4% formaldehyde in PBS for 15 min, permeabilized in 0.1% Triton X-100 for 10 min, and blocked in 1% BSA for 1 h at room temperature. […] The slides were mounted with Fluoromount mounting medium (Sigma Aldrich, St. Louis, Mo., USA), sealed, and examined using Zeiss 710 laser scanning confocal microscope.
BAPTA/AM and Ionomycin treatment. Monolayers of HeLa cells were washed with PBS and replaced with calcium free DMEM+1% FBS and pretreated for 1 h with BAPTA/AM (15 μM) followed by C. trachomatis infection for 24 h. BAPTA/AM concentration was maintained during the C. trachomatis infection. The control cells were treated with DMSO (<0.1%) followed by 24 h of C. trachomatis infection. In another set of experiments, HeLa cells were infected with C. trachomatis followed by addition of BAPTA/AM (15 μM) or DMSO at 2 or 5 hpi. The total time for C. trachomatis infection was 24 h.

F-actin = assay: Organization of F-actin at the chlamydial inclusion periphery (confocal microscopy); assay type: cell-based, human; conditions: C. trachomatis 24 h
Procedure: Immunofluorescence. Cells were infected with C. trachomatis as described above. The cells were washed 5 times with PBS and fixed at either 2.5 hpi or 24 hpi with 4% PFA for 10 min and blocked with 5% BSA for 1 h. After washing with TBS (50 mM Tris HCl, pH 7.4 and 150 mM NaCl) the cells were permeabilized for 15 min with 0.1% Triton X-100 and again washed with TBS followed by incubation with the indicated primary antibodies overnight. […] After repeated washings, the coverslips were mounted and analyzed using Zeiss LSM 510 or 710 laser scanning confocal microscope. For the studies shown in FIG. 1, Panel A, C. trachomatis inclusions were stained using the Pathfinder Chlamydia Culture Confirmation System (BioRad, Hercules, Calif., USA). At 24 h post C. trachomatis infection, cells were fixed with methanol for 10 min at room temperature and stained with the FITC conjugated pathfinder anti-chlamydial mAb according to the manufacturer's protocol (Bio-Rad, Hercules, Calif.). For the co-localization studies, 30,000 HeLa cells were seeded into EZ slide 4-well glass slides (Millipore, Temecula, Calif., USA) and infected with C. trachomatis as described above for 2.5 h the next day. Cells were fixed 24 h later in 4% formaldehyde in PBS for 15 min, permeabilized in 0.1% Triton X-100 for 10 min, and blocked in 1% BSA for 1 h at room temperature. […]

intracellular calcium = assay: Intracellular calcium staining (fluorescence microscopy) in HeLa cells; assay type: cell-based, human
Procedure: Intracellular calcium staining. Cells were washed with calcium free incomplete DMEM and incubated with 2 μM Fluo-4 AM diluted in Ca^2++ free incomplete DMEM at 37° C. for 30 min. The cells were then washed with Ca^2++ free HBSS and analyzed for calcium levels using an Olympus IX71 fluorescence microscope.
BAPTA/AM and Ionomycin treatment. Monolayers of HeLa cells were washed with PBS and replaced with calcium free DMEM+1% FBS and pretreated for 1 h with BAPTA/AM (15 μM) followed by C. trachomatis infection for 24 h. BAPTA/AM concentration was maintained during the C. trachomatis infection. The control cells were treated with DMSO (<0.1%) followed by 24 h of C. trachomatis infection. In another set of experiments, HeLa cells were infected with C. trachomatis followed by addition of BAPTA/AM (15 μM) or DMSO at 2 or 5 hpi. The total time for C. trachomatis infection was 24 h. To induce mobilization of calcium from intracellular stores to the cytoplasm, cultured cells were pretreated for 1 h with 1 μg/ml Ionomycin before chlamydial infection. C. trachomatis-infected cells were washed three times with PBS after 24 hpi and processed for immunofluorescence as described above.

[2] = system: EGFR, PLCγ1, STAT5 and Akt; assay: Western blot of C. trachomatis-induced phosphorylation of EGFR and downstream effectors in HeLa cells; assay type: cell-based, human; conditions: 25 μM Erlotinib for 2 h followed by Ct infection for 2.5 h
Procedure: (§2) Immunoblotting. Cells were harvested and lysed in modified RIPA buffer (50 mM Tris, 150 mM NaCl, 1% sodium deoxycholate, 1% NP-40, 1 mM sodium fluoride) supplemented with protease inhibitor cocktail and phosphatase inhibitor tablet (Roche). For Western blotting of C. trachomatis antigens, the C. trachomatis-infected cells were lysed in 20 mM HEPES buffer (pH 8.0) containing 8 M urea supplemented with protease inhibitors. Cell lysates were incubated on ice for 1 h and then sonicated briefly. The soluble protein fraction was collected by centrifugation at 10,000 rpm. Total protein was estimated using the BCA method and equal amounts of proteins (10-20 μg) were processed for immunoblotting. Proteins were resolved on 10% SDS polyacrylamide gel and transferred onto a nitrocellulose membrane. The blot was blocked using 3% BSA and incubated with the indicated antibodies. ECL was used to detect the proteins according to the manufacturer's instructions.
EGFR inhibitor treatment. […] The cells were pretreated with Erlotinib (25 μM) for 2 h and then infected with C. trachomatis. […] The inhibitor concentration was maintained during the infection. In certain experiments in which protein phosphorylation was investigated (FIG. 1, Panels B, D, F and G, FIG. 2, FIG. 3 and FIG. 11) the cells were serum starved overnight before drug treatment and C. trachomatis infection. […]

C. trachomatis [3] = assay: Inside out staining: chlamydial attachment and entry into the host cell; assay type: cell-based, Chlamydia trachomatis strain D; conditions: HeLa cells, C. trachomatis 2.5 h
Procedure: Inside out staining. Differential staining of external and internalized bacteria was performed as described previously and using three independent studies. Briefly, cells were grown overnight in 2-well Lab-Tek chamber slides and treated with either EGFR inhibitors or siRNA as described above and subsequently infected with Chlamydia for 2.5 h at 37° C. to allow for bacterial attachment and internalization. […] Infected cells were washed five times in PBS and fixed in 1% paraformaldehyde (PFA). After fixation, cells were blocked in 5% BSA for 1 h and then incubated with FITC-conjugated antibody against chlamydial EBs for 1 h to stain external EBs. Cells were then permeabilized with 0.1% Triton X-100, blocked again, and incubated with antibody against chlamydial LPS followed by incubation with rhodamine-conjugated anti-goat antibody to stain intracellular and extracellular EBs. Imaging was performed using confocal microscopy (Carl Zeiss, Germany). The quantification for the inside out experiments was performed manually based on the number of attached EBs observed per infected cell. The statistical analysis was based on imaging data collected from fifteen fields containing 3-10 cells per field as described below.
Similarly, fifteen random fields (3-10 cells per field) were used for the inside out experiments. All results are presented as mean±SEM. […]

chlamydial Hsp60 = assay: Western blot analysis of chlamydial Hsp60 in infected HeLa cells; assay type: cell-based, Chlamydia trachomatis strain D
Procedure: as §2, §1

chlamydial EBs = assay: Control experiment: viability of elementary bodies (EBs) treated with Erlotinib and Cetuximab (Hsp60 Western blot); assay type: cell-based, Chlamydia trachomatis strain D; conditions: EBs with Erlotinib 25 μM or Cetuximab 20 μg/ml for 2.5 h, HeLa infection 24 h
From the text: Control experiments. […] EB pellets were washed and resuspended in SPG buffer and used for subsequent HeLa cell infection. At 24 hpi cells were lysed for Western blotting of chlamydial Hsp60 antigen.

HeLa cells = assay: Cell viability assay (MTT); assay type: cell-based, human; conditions: 25 μM Erlotinib for 24 h
Procedure: Cell proliferation assay. To ensure that the dose of Erlotinib (25 μM) provided maximal inhibition without affecting cell viability, MTT assays were performed. HeLa cells were cultured for 24 h, treated with 25 μM Erlotinib and incubated at 37° C., 5% CO2 for 24 h. After washing the cells, the procedure for cell viability assay was followed as per manufacturer's instructions (Roche).

C. trachomatis [4] = assay: Transmission electron microscopy of HeLa cells infected with C. trachomatis; assay type: cell-based, Chlamydia trachomatis strain D; conditions: C. trachomatis 24 h, vs respective controls
Procedure: Transmission electron microscopy. HeLa cells were infected with C. trachomatis as described above. […] The cells were then washed and post-fixed for 1 h in 1% osmic acid in 0.1 N Millonig's buffer followed by 1 h treatment with 1% uranyl acetate. […] Thin sections were then cut with a Reichert ultracut E microtome and stained with 1% uranyl acetate and Reynold's lead citrate solutions, followed by the analysis using 80 kV Tecnai Spirit BioTwin transmission electron microscope.

[5] = HeLa cells pre-treated with BAPTA/AM 15 μM for 1 h, calcium free DMEM
[6] = HeLa cells treated before infection (Erlotinib 25 μM, Cetuximab 20 μg/ml or siRNA), vs DMSO, IgG or control siRNA

Compound: CC(=O)OCOC(=O)CN(CC(=O)OCOC(C)=O)c1ccccc1OCCOc1ccccc1N(CC(=O)OCOC(C)=O)CC(=O)OCOC(C)=O [BAPTA/AM]
- Inclusion size (C. trachomatis [1]; [5]): significant decrease; also recorded: significantly reduced
- Number of inclusions (C. trachomatis [1]; [5]): significant decrease; also recorded: significantly reduced
- Inclusion development (C. trachomatis [1]; HeLa cells, BAPTA/AM 15 μM added at 2 or 5 hpi, vs DMSO): Impaired inclusion formation; also recorded: impaired inclusion development
- Assembly of F-actin at the inclusion periphery (F-actin; HeLa cells pre-treated with BAPTA/AM for 1 h): diffused assembly of F-actin at the inclusion periphery

Compound: C[C@H](CCC(=O)O)C[C@H](C)C[C@H](C)C(=O)/C=C(\O)[C@H](C)C[C@H](C)C/C=C/[C@@H](C)[C@@H](O)[C@@H](C)[C@@H](O)C[C@@H]1CC[C@@](C)([C@H]2CC[C@@](C)([C@@H](C)O)O2)O1 [Ionomycin]
- Inclusion formation in EGFR siRNA treated cells with or without Ionomycin (C. trachomatis [1]; HeLa cells, EGFR siRNA, Ionomycin 1 μg/ml 1 h pre-treatment, Ct 24 h): not able to rescue; also recorded: no significant difference
- Intracellular free calcium (Fura-2/AM) (intracellular calcium; Ionomycin 1 μg/ml for 1 h): Increased intracellular free calcium

Compound: C#Cc1cccc(Nc2ncnc3cc(OCCOC)c(OCCOC)cc23)c1 [Erlotinib]
- EGFR phosphorylation induced by Ct infection [2]: an increase in EGFR phosphorylation upon Ct infection in the absence of Erlotinib but not in the presence of the drug
- Inclusion size (C. trachomatis [1]; [6]): Significant reduction
- Number of inclusions (C. trachomatis [1]; [6]): significantly reduced
- Inclusion development (C. trachomatis [1]; HeLa cells, Erlotinib added at 2.5 hpi): impaired regular inclusion formation and resulted in formation of numerous bacterial aggregates; also recorded: incomplete inclusion development and bacterial aggregates
- Inclusion development (C. trachomatis [1]; HeLa cells, Erlotinib added at 5 hpi): impaired regular inclusion formation and resulted in formation of numerous bacterial aggregates; also recorded: incomplete inclusion development and bacterial aggregates
- Inclusion development (C. trachomatis [1]; HeLa cells, Erlotinib added at 18 hpi): did not significantly affect; also recorded: Well-developed C. trachomatis inclusions
- Chlamydial binding to the host cell surface (cell-associated bacteria, external+internalized) (C. trachomatis [3]): Significant reduction
- Chlamydial Hsp60 levels (chlamydial Hsp60; HeLa cells treated before infection, C. trachomatis 2.5 h): significant (P<0.001) reduction
- Chlamydial Hsp60 (chlamydial Hsp60; HeLa cells, Erlotinib 25 μM added at 2.5 hpi, total infection 24 h): Significantly lower expression; also recorded: Significant decrease
- Chlamydial Hsp60 antigen (chlamydial Hsp60; HeLa cells, Erlotinib 25 μM followed by Ct infection for 24 h): marked decrease
- Chlamydial Hsp60 antigen load in cells infected with drug-treated vs untreated EBs (EB viability) (chlamydial EBs): comparable; also recorded: no difference
- Viability of HeLa cells (HeLa cells): did not reduce the viability; also recorded: did not affect the viability
- Inclusion morphology by transmission electron microscopy (C. trachomatis [4]): small inclusions; also recorded: smaller and less mature
- Calcium signal in C. trachomatis-infected cells (Fluo-4 AM) (intracellular calcium; Erlotinib added at 2.5 and 5 hpi, stained at 24 hpi): significant drop in calcium signal; also recorded: weak calcium signal
- Assembly of F-actin at the inclusion periphery (F-actin; HeLa cells with EGFR inhibition): altered

From patent US10017768B2, “Method of treatment of chlamydial infections with selected EGFR inhibitors” (priority 2013, dated 2018)
